Data reported in patent US20240417405A1, “Substituted Spiro Derivatives” (Janssen Pharmaceutica NV, priority 2021, published 2024).

Key:
[1] = biological target: T1, menin/MLL (terbium chelate-labeled menin, FITC-MBM1 peptide) (Homo sapiens, UniProt O00255, T541A); experiment: Menin/MLL homogenous time-resolved fluorescence (HTRF) assay; assay type: binding; details: 30 min incubation
T1 construct: Menin (a.a 1-610-6xhis tag)
T1 sequence (O00255 with tags, fused parts or gaps T541A): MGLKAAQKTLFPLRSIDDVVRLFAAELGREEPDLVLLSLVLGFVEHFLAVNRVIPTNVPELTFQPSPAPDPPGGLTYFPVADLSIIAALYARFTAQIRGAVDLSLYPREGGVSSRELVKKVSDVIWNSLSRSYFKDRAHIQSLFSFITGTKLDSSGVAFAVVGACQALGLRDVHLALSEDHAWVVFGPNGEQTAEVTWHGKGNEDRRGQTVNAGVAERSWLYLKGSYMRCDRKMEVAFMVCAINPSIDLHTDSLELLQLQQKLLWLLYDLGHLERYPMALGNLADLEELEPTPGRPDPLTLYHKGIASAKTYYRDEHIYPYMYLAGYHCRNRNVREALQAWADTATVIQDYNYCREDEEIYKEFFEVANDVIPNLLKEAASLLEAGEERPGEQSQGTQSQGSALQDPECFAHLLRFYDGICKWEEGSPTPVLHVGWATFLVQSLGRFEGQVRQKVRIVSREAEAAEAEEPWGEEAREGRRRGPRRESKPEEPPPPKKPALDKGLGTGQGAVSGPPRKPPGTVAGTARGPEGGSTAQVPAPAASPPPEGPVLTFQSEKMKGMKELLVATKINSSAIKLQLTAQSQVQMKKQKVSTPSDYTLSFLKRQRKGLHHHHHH
Procedure, shortened: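 Displacement of FITC-labeled MBM1 peptide (75 nM) from terbium-labeled menin 1-610 (200 pM) measured by HTRF emission ratio. Eleven four-fold dilutions, typically from 10 μM, normalised to saturating-competitor and no-compound controls; IC50 from four-parameter logistic.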

MOLM14 cells = experiment: Proliferation assay, spheroid-like growth, MOLM14 (MLL-AF9 rearranged); assay type: cell-based, human; details: Homo sapiens, MOLM-14, 192 h, 8 days, confluence as measure of spheroid size, read-out: spheroid assay_OneTime MOLM14 IC50
Procedure, shortened: (§1)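 Read-out is spheroid confluence from live-cell images taken on day 8, scaled between DMSO-treated wells (0% cytotoxicity) and a low control such as 1 μM staurosporin. Cells were exposed to compound for 8 days in low-attachment plates; KO-52 served as the MLL-wildtype counterscreen.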

KO-52 cells = experiment: Proliferation assay, spheroid-like growth, KO-52 (MLL wildtype control cell line); assay type: cell-based, human; details: Homo sapiens, 192 h, KO-52 control cells, 8 days, confluence as measure of spheroid size; read-out: spheroid assay_OneTime KO-52 IC50
Procedure, shortened: as §1

| Compound | IC50 [1] | IC50 (MOLM14 cells) | IC50 (KO-52 cells) |
| --- | --- | --- | --- |
| CC(C)[C@H]([C@H]1C[C@H](N2C[C@H]3COC[C@H]3C2)C1)N1CC2(CCN(c3ncnnc3Oc3ccc(F)cc3-c3ncccc3C3CC3)C2)C1 (single isomer, unassigned) [Compound 150] | 0.1 nM | 120 nM | 3140 nM |
| CC(C)[C@H]([C@H]1C[C@@H](N2CC3(COC3)C2)C1)N1CC2(CCN(c3ncnnc3Oc3ccc(F)cc3-c3ncccc3C3CC3)C2)C1 (single isomer, unassigned) [Compound 151] | 0.1 nM | 4 nM | 2030 nM |
| CC(C)[C@H]([C@H]1C[C@H](N2CC3(COC3)C2)C1)N1CC2(CCN(c3ncnnc3Oc3ccc(F)cc3-c3ncccc3C3CC3)C2)C1 (single isomer, unassigned) [Compound 152] | 0.2 nM | 49 nM | 3960 nM |
| CC(C)[C@@H]([C@H]1C[C@@H](N(C)C)C1)N1CC2(CCN(c3ncnnc3Oc3ccc(F)cc3-c3ncccc3C3CC3)C2)C1 (single isomer, unassigned) [Compound 153] | 5.3 nM | 730 nM | 4830 nM |
| CC(C)[C@H](C1CC2(C1)CN(CC1COC1)C2)N1CC2(CCN(c3ncnnc3Oc3ccc(F)cc3-c3cncnc3C3CC3)C2)C1 (single isomer, unassigned) [Compound 154] | 0.4 nM | 230 nM | 9080 nM |
| CC(C)[C@H](C1CC2(CCN2CC2COC2)C1)N1CC2(CCN(c3ncnnc3Oc3ccc(F)cc3-c3cncnc3C3CC3)C2)C1 (single isomer, unassigned) [Compound 155] | 2.3 nM | 570 nM | > 15000 nM |
| CC(C)[C@@H](C1CC2(C1)CN(CC1COC1)C2)N1CC2(CCN(c3ncnnc3Oc3ccc(F)cc3-c3cncnc3C3CC3)C2)C1 (single isomer, unassigned) [Compound 157] | 0.2 nM | 120 nM | 7770 nM |
| CC(C)[C@@H](C1CC2(CCN2CC2COC2)C1)N1CC2(CCN(c3ncnnc3Oc3ccc(F)cc3-c3cncnc3C3CC3)C2)C1 (single isomer, unassigned) [Compound 158] | 0.8 nM | 480 nM | > 15000 nM |
| CC(C)C(C1CC(C)(O)C1)N1CC2(CCN(c3ncnnc3Oc3ccc(F)cc3-c3cncnc3C3CC3)C2)C1 (single isomer, unassigned) [Compound 159] | 0.3 nM | 110 nM | 1100 nM |
| CC(C)[C@@H](C1CC(C)(O)C1)N1CC2(CCN(c3ncnnc3Oc3ccc(F)cc3-c3cncnc3C3CC3)C2)C1 (single isomer, unassigned) [Compound 160] | 23.2 nM | > 3750 nM | > 15000 nM |
| CC(C)[C@H]([C@H]1C[C@@H](NC2CCOCC2)C1)N1CC2(CCN(c3ncnnc3Oc3ccc(F)cc3-c3cncnc3C3CC3)C2)C1 (single isomer, unassigned) [Compound 163] | 0.1 nM | 11 nM | 4370 nM |
| CC(C)[C@H]([C@H]1C[C@@H](N(C)C2CCOCC2)C1)N1CC2(CCN(c3ncnnc3Oc3ccc(F)cc3-c3cncnc3C3CC3)C2)C1 (single isomer, unassigned) [Compound 164] | 0.1 nM | 10 nM | 1410 nM |
| CC(C)[C@@H]([C@H]1C[C@@H](NC2CCOCC2)C1)N1CC2(CCN(c3ncnnc3Oc3ccc(F)cc3-c3cncnc3C3CC3)C2)C1 (single isomer, unassigned) [Compound 165] | 0.8 nM | 200 nM | 9910 nM |
| CC(=O)N1CC2(C1)CN([C@H]1C[C@@H]([C@@H](C(C)C)N3CC4(CCN(c5ncnnc5Oc5ccc(F)cc5-c5cncnc5C5CC5)C4)C3)C1)C2 (single isomer, unassigned) [Compound 170] | 0.1 nM | 5 nM | 8680 nM |
| CC(=O)N1CC2(C1)CN([C@H]1C[C@H]([C@@H](C(C)C)N3CC4(CCN(c5ncnnc5Oc5ccc(F)cc5-c5cncnc5C5CC5)C4)C3)C1)C2 (single isomer, unassigned) [Compound 171] | 0.1 nM | 31 nM | > 15000 nM |
| CC(=O)N1CCC12CN([C@H]1C[C@@H]([C@@H](C(C)C)N3CC4(CCN(c5ncnnc5Oc5ccc(F)cc5-c5cncnc5C5CC5)C4)C3)C1)C2 (single isomer, unassigned) [Compound 172] | 0.1 nM | 22 nM | 10100 nM |
| CC(=O)N1CCC12CN([C@H]1C[C@H]([C@@H](C(C)C)N3CC4(CCN(c5ncnnc5Oc5ccc(F)cc5-c5cncnc5C5CC5)C4)C3)C1)C2 (single isomer, unassigned) [Compound 173] | 0.2 nM | 150 nM | > 15000 nM |
| CC(=O)N1CCCC12CN([C@H]1C[C@@H]([C@@H](C(C)C)N3CC4(CCN(c5ncnnc5Oc5ccc(F)cc5-c5cncnc5C5CC5)C4)C3)C1)C2 (single isomer, unassigned) [Compound 174] | 0.1 nM | 9 nM | 7400 nM |
| CC(=O)N1CCCC12CN([C@H]1C[C@H]([C@@H](C(C)C)N3CC4(CCN(c5ncnnc5Oc5ccc(F)cc5-c5cncnc5C5CC5)C4)C3)C1)C2 (single isomer, unassigned) [Compound 175] | 0.1 nM | 110 nM | > 15000 nM |
| CC(=O)N[C@H]1C[C@@H]([C@@H](C(C)C)N2CC3(CCN(c4ncnnc4Oc4ccc(F)cc4-c4nccnc4C4CC4)C3)C2)C1 (single isomer, unassigned) [Compound 177] | 0.2 nM | 37 nM | 8870 nM |
| CC(=O)N[C@H]1C[C@@H]([C@H](C(C)C)N2CC3(CCN(c4ncnnc4Oc4ccc(F)cc4-c4nccnc4C4CC4)C3)C2)C1 (single isomer, unassigned) [Compound 178] | 108 nM | > 940 nM | > 15000 nM |
| CC(=O)N[C@H]1C[C@@H]([C@@H](C(C)C)N2CC3(CCN(c4ncnnc4Oc4ccc(F)cc4-c4ncncc4C4CC4)C3)C2)C1 (single isomer, unassigned) [Compound 180] | 0.3 nM | 62 nM | 10100 nM |
| CC(=O)N[C@H]1C[C@@H]([C@H](C(C)C)N2CC3(CCN(c4ncnnc4Oc4ccc(F)cc4-c4ncncc4C4CC4)C3)C2)C1 (single isomer, unassigned) [Compound 181] | 96.9 nM | > 940 nM | > 15000 nM |
| CC(C)[C@H]([C@H]1C[C@@H](NC(=O)C2CC2)C1)N1CC2(CCN(c3ncnnc3Oc3ccc(F)cc3-c3cnncc3C3CC3)C2)C1 (single isomer, unassigned) [Compound 185] | 0.1 nM | 6 nM | 6040 nM |
| CC(C)[C@@H]([C@H]1C[C@@H](NC(=O)C2CC2)C1)N1CC2(CCN(c3ncnnc3Oc3ccc(F)cc3-c3cnncc3C3CC3)C2)C1 (single isomer, unassigned) [Compound 186] | 5.4 nM | > 940 nM | 7050 nM |
| CC(C)[C@H]([C@H]1C[C@@H](N2CCC[C@H](F)C2)C1)N1CC2(CCN(c3ncnnc3Oc3ccc(F)cc3-c3cncnc3C3CC3)C2)C1 (single isomer, unassigned) [Compound 200] | 0.1 nM | 16 nM | 9710 nM |
| CC1CN([C@H]2C[C@@H]([C@@H](C(C)C)N3CC4(CCN(c5ncnnc5Oc5ccc(F)cc5-c5cncnc5C5CC5)C4)C3)C2)CCC1O (single isomer, unassigned) [Compound 201] | 0.2 nM | 6 nM | 4240 nM |
| CC(C)[C@H]([C@H]1C[C@H](N2CCC3(C2)CS(=O)(=O)C3)C1)N1CC2(CCN(c3ncnnc3Oc3ccc(F)cc3-c3cncnc3C3CC3)C2)C1 (single isomer, unassigned) [Compound 204] | 0.3 nM | 190 nM | > 15000 nM |
| CC(C)[C@H]([C@H]1C[C@@H](N2CCC3(C2)CS(=O)(=O)C3)C1)N1CC2(CCN(c3ncnnc3Oc3ccc(F)cc3-c3cncnc3C3CC3)C2)C1 (single isomer, unassigned) [Compound 205] | 0.1 nM | 39 nM | 8470 nM |
